Test [1] has as its system interleukin 8 release by human HaCaT keratinocytes. The settings on record: 24 h with PUFA, then PMA/A23187 for 6 h (FIG. 3). On the procedure:
The anti-inflammatory potential of the PUFAs was tested on human keratinocytes (HaCaT) stimulated by PMA/A23187. The changes induced by these PUFAs are evaluated on the production of eicosanoids and an inflammatory cytokine, interleukin 8, during an inflammatory process triggered by PMA/A23187. HaCaT cells are incubated on 96-well plates for 24 h in the presence of PUFAs, rinsed and then stimulated by PMA/A23187. The supernatants are recovered after 6 h of stimulation and IL-8 is quantified using the OptEIA™ ELISA kit (BD Pharmingen).

The test system of test [2] is release of arachidonic acid and eicosanoids by HaCaT keratinocytes. Nature of the test: Arachidonic acid metabolism in [3H]AA-labeled HaCaT keratinocytes stimulated by PMA/A23187. Format: cell-based, human. Conditions: HaCaT pretreated with PUFA 24 h, 500 nM PMA and 1 μM A23187 for 5 hours (FIGS. 4A-4C). The procedure: HaCaT keratinocytes were incubated in 24-well plates in the presence of 1 μCi [^3H]AA for 18 hours under an atmosphere of 5% CO2. To test the capacity of
PUFAs to modulate the inflammatory response of keratinocytes, [^3H]-labeled HaCaT cells are pretreated with PUFAs for 24 hours, rinsed and then stimulated by 500 nM PMA and 1 μM A23187 for 5 hours. [^3H]AA and metabolites released by the HaCaT cells in the culture medium are extracted by column chromatography. The eluate is evaporated under N2. The dry residue is taken up in methanol and deposited on thin-layer silica plates activated beforehand for 1 hour at 100° C. The developing solvent is the organic phase of the mixture ethyl acetate/water/isooctane/acetic acid (110:100:50:20, v/v). [^3H]AA and metabolites (6-keto-prostaglandin F1α, 6k-PGF1α; prostaglandin (PG) FαE2D2; thromboxane (TX) B2, leukotrienes (LT) B4, C4, D4) are identified by a Berthold TLC scanner.

In another test the test system is P. acnes strain. Nature of the test: Antibacterial activity of the diols, MIC micromethod in liquid medium, P. acnes strain. Format: cell-based, Propionibacterium acnes. The procedure:
Tests were carried out with eight microbial strains using the dilution method described below.
Minimum inhibitory concentrations (MICs) are determined using a micromethod in liquid medium. Successive 1/2 dilutions of the test products in culture medium (Trypcase Soy Broth) are carried out in 96-well microplates in a final volume of 0.1 ml. The wells are inoculated with 0.01 ml of the bacterial suspensions titrated at roughly 1×10^7 CFU/ml. The microplates are incubated in optimal growth conditions and the MIC is read visually.
The columns labeled “BS” represent the bacteriostatic activity and the columns labeled “BC” represent the bactericidal activity of the diols (1% corresponds to a concentration of 10 mg/ml).

Test [3] deals with Propionibacterium acnes ATCC6919. Kind of test: Kinetics of antibacterial activity (residual CFU count), Propionibacterium acnes. Type of test: cell-based. Conditions: for Log R: P. acnes. An excerpt:
(§1) The kinetics of the antibacterial activity of 1,2-octanediol were studied by evaluating the lethality of the bacteria over time by counting residual colony-forming units (CFUs) after contact of the test solution with the bacterial suspension.
(§2) The bacterial strains used are: Staphylococcus aureus ATCC6538 and Propionibacterium acnes ATCC6919. The culture medium used for Staphylococcus aureus ATCC6538 is Trypcase Soy Agar whereas the culture medium used for Propionibacterium acnes ATCC6919 is Schaedler agar. Stock solutions containing 1% and 0.5% 1,2-octanediol are prepared extemporaneously in 1% Polysorbate 20 (qsp WFI) and then adjusted to pH 7 with 0.1 N NaOH solution.
(§3) A volume of 5 ml of each stock solution is inoculated with 50 μl bacterial suspension titrated at roughly 1×10^8 CFU/ml.
(§4) After each time of contact (contact times tested: 5 min, 15 min, 30 min and 60 min), residual bacteria are counted by taking a 1 ml aliquot neutralized by 9 ml Trypcase Soy Broth and 10% Polysorbate 80.
(§5) Counting is carried out by adding 1 ml neutralized mixture and four 1/10 serial dilutions to the corresponding agar plates.
(§6) The agar plates are incubated at 36° C.±1° C. in aerobic atmosphere for S. aureus and anaerobic atmosphere for P. acnes (Generbag anaer, Biomerieux) for 72 hours and then the CFUs are counted.
(§7) • with R meaning “reduction”. It refers to the ratio between the number of inoculated bacteria and the number of residual bacteria after contact of the test solution with the bacterial suspension.

For test [4], the system named is Staphylococcus aureus ATCC6538. Kind of test: Kinetics of antibacterial activity (residual CFU count), Staphylococcus aureus. Type of test: cell-based. The settings on record: S. aureus.
Text: as §1, §2, §3, §4, §5, §6, §7

SMILES strings stand for the structures.

In the case of `CCCCC/C=C\C/C=C\C/C=C\CCCCC(=O)O` [γ-linolenic acid], the “effect on IL-8 secretion of stimulated keratinocytes” value in test [1] is on record as “inhibitory effect”.

Consider `CC/C=C\C/C=C\C/C=C\CCCCCCCC(=O)O` [α-linolenic acid], for which, in test [2], the “release of arachidonic acid” value is listed as “significantly inhibits”, the “release of cyclooxygenated metabolites” value was “significantly inhibits” and the “release of lipoxygenated metabolites” value is given as “significantly inhibits”. For the same molecule, the “effect on IL-8 secretion of stimulated keratinocytes” value in test [1] is given as “inhibitory effect”.

As to `CC/C=C\C/C=C\C/C=C\C/C=C\CCCCC(=O)O` [stearidonic acid], in test [2], the “release of arachidonic acid” value is given as “significantly inhibits”, the “release of cyclooxygenated metabolites” value is given as “significantly inhibits” and the “release of lipoxygenated metabolites” value was “significantly inhibits”.

As for `CCCCC/C=C\C/C=C\CCCCCCCC(=O)O` [linoleic acid], in test [2], the “release of arachidonic acid” value was “significantly inhibits”, the “release of cyclooxygenated metabolites” value was “significantly inhibits” and the “release of lipoxygenated metabolites” value is recorded as “significantly inhibits”.

Regarding `CCCCCCC(O)CCO` (stereo not drawn) [1,3-nonanediol], in the test on P. acnes strain, the “bactericidal effect concentration (BC)” value turned out to be 3.12 mg/mL and the “bacteriostatic effect concentration (BS)” value amounted to 1.56 mg/mL.

As to `CCCCCCC(O)CO` (stereo not drawn) [1,2-octanediol], the “decrease of the population of P. acnes” value in test [3] (0.5%, physiological pH, one hour of contact) is “greater than 99.9%”. The “Log R” value in test [3] (0.5%, pH 7, contact 5 min) is 0.2; in test [3] (0.5%, pH 7, contact 15 min), 0.7; in test [3] (0.5%, pH 7, contact 30 min) it was 1.8; in test [3] (0.5%, pH 7, contact 60 min) it was 3; in test [3] (1%, pH 7, contact 5 min) it was >5; in test [3] (1%, pH 7, contact 15 min), >5. For the same molecule, the “Log R” value was >5 in test [3] (1%, pH 7, contact 30 min); >5 in test [3] (1%, pH 7, contact 60 min); 0.4 in test [4] (0.5%, pH 7, contact 5 min); 0.1 in test [4] (0.5%, pH 7, contact 15 min); 0.2 in test [4] (0.5%, pH 7, contact 30 min); 0.5 in test [4] (0.5%, pH 7, contact 60 min). Moreover, the “Log R” value is reported as >5.3 in test [4] (1%, pH 7, contact 5 min); >5.3 in test [4] (1%, pH 7, contact 15 min); >5.3 in test [4] (1%, pH 7, contact 30 min); >5.3 in test [4] (1%, pH 7, contact 60 min).

Values taken from patent US8623916B2, “Polyunsaturated fatty acid and diol ester as an anti-acne agent” (Pierre Fabre Dermo-Cosmetique, priority 2008, dated 2014).
